# Test results: PMC7281298, “Exploring Kinase Inhibition Properties of 9H-pyrimido[5,4-b]- and [4,5-b]indol-4-amine Derivatives” (Pharmaceuticals, 2020)
# Like-named read-outs stand apart in the source and are kept apart here.
# Experiments:
# [1] = target: T1, DYRK1A (Homo sapiens, UniProt Q13627); assay: Kinase inhibition assay, DYRK1A; format: biochemical; conditions: for IC50: read-out: Kinase inhibitory potency (IC50) DYRK1A
# Procedure: (§1) The inhibitory potency of the synthesized pyrimido[4,5-b]indol-4-amines and pyrimido[5,4-b]indol-4-amines towards CDK5/p25, CK1δ/ε, DYRK1A, and GSK-3α/β was investigated according preceding procedures.
# (§2) Buffers, kinase preparations, and assays were performed as described in ref. [12, 13, 14] according methods initially published in previous works.
# [2] = target: CDK5/p25 (Homo sapiens, UniProt Q00535); assay: Kinase inhibition assay, CDK5/p25; format: biochemical; conditions: for IC50: average of triplicate determination (<10% variation), read-out: Kinase inhibitory potency (IC50) CDK5/p25
# Sequence of CDK5/p25 (Q00535 whole entry, species assumed): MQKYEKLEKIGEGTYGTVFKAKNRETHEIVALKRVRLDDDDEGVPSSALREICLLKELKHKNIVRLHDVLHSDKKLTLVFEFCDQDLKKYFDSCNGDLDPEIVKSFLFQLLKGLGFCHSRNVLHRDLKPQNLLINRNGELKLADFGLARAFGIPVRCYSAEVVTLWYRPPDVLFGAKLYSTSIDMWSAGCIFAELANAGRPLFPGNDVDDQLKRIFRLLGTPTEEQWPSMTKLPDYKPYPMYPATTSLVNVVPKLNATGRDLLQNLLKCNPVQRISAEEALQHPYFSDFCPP
# Sequence of CDK5/p25 (Q15078 99-307 partner limits assumed, species assumed): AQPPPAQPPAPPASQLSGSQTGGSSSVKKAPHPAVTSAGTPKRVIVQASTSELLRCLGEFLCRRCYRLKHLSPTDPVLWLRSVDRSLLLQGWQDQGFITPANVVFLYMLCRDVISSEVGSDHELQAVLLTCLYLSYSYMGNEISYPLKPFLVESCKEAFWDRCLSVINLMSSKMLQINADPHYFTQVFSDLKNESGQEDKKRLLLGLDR
# Procedure: as §1, §2
# [3] = target: GSK-3α/β; assay: Kinase inhibition assay, GSK-3α/β; format: biochemical; conditions: for IC50: average of triplicate determination (<10% variation), read-out: Kinase inhibitory potency (IC50) GSK-3α/β
# Procedure: as §1, §2
# [4] = target: CK1δ/ε; assay: Kinase inhibition assay, CK1δ/ε; format: biochemical; conditions: for IC50: average of triplicate determination (<10% variation), read-out: Kinase inhibitory potency (IC50) CK1δ/ε
# Procedure: as §1, §2
# [5] = system: CK1δ/ε; design: method as in PMID 23237976, PMID 23124214, PMID 25549552; conditions: already published data, cited from earlier work; for IC50: thieno[2,3-d]pyrimidin-4-amine congeners
# [6] = target: T1, DYRK1A; design: method as in PMID 23237976, PMID 23124214, PMID 25549552; conditions: thieno[2,3-d]pyrimidin-4-amine congeners, already published data; cited from earlier work
# [7] = average of triplicate determination (<10% variation)
Compound,"IC50 [1, 7] [µM]",IC50 [2] [µM],IC50 [3] [µM],IC50 [4] [µM],Inhibitory activity against DYRK1A (in words) [1],Inhibitory activity against CK1δ/ε (in words) [4],Inhibitory activity against CDK5/p25 (in words) [2],Inhibitory activity against GSK3α/β (in words) [3],IC50 [1] [µM],IC50 [5] [µM],IC50 [6] [µM],Activity against CK1 (in words) [5]
"Nc1ncnc2c1[nH]c1ccccc12 [Compound 1a, 5H-Pyrimido[5,4-b]indol-4-amine]",2.2,> 10,> 10,2,–,–,–,–,–,–,–,–
"Cn1c2ccccc2c2ncnc(N)c21 [Compound 1b, 5-Methyl-5H-pyrimido[5,4-b]indol-4-amine]",5.8,> 10,> 10,4,–,–,–,–,–,–,–,–
"CCn1c2ccccc2c2ncnc(N)c21 [Compound 1c, 5-Ethyl-5H-pyrimido[5,4-b]indol-4-amine]",4.1,> 10,> 10,2.8,–,–,–,–,–,–,–,–
"Nc1ncnc2c3ccccc3n(Cc3ccccc3)c12 [Compound 1d, 5-Benzyl-5H-pyrimido[5,4-b]indol-4-amine]",> 10,> 10,> 10,0.6,lack of activity,–,–,–,–,–,–,–
"Nc1ncnc2c1[nH]c1ccc([N+](=O)[O-])cc12 [Compound 2a, 8-Nitro-5H-pyrimido[5,4-b]indol-4-amine]",7.6,> 10,> 10,> 10,low micromolar activity,no inhibition,–,–,–,–,–,–
"Cn1c2ccc([N+](=O)[O-])cc2c2ncnc(N)c21 [Compound 2b, 5-Methyl-8-nitro-5H-pyrimido[5,4-b]indol-4-amine]",> 10,> 10,> 10,> 10,–,–,–,–,–,–,–,–
"CCn1c2ccc([N+](=O)[O-])cc2c2ncnc(N)c21 [Compound 2c, 5-Ethyl-8-nitro-5H-pyrimido[5,4-b]indol-4-amine]",> 10,> 10,> 10,> 10,–,–,–,–,–,–,–,–
"Nc1ncnc2c3cc([N+](=O)[O-])ccc3n(Cc3ccccc3)c12 [Compound 2d, 5-Benzyl-8-nitro-5H-pyrimido[5,4-b]indol-4-amine]",> 10,> 10,> 10,> 10,–,–,–,–,–,–,–,–
"Nc1ncnc2[nH]c3ccccc3c12 [Compound 3a, 9H-Pyrimido[4,5-b]indol-4-amine]",3.1,6,> 10,0.7,–,–,–,–,–,–,–,–
"Cn1c2ccccc2c2c(N)ncnc21 [Compound 3b, 9-Methyl-9H-pyrimido[4,5-b]indol-4-amine]",> 10,> 10,> 10,2.5,–,–,–,–,–,–,–,–
"CCn1c2ccccc2c2c(N)ncnc21 [Compound 3c, 9-Ethyl-9H-pyrimido[4,5-b]indol-4-amine]",9.8,> 10,> 10,1.6,–,–,–,–,–,–,–,–
"Nc1ncnc2c1c1ccccc1n2Cc1ccccc1 [Compound 3d, 9-Benzyl-9H-pyrimido[4,5-b]indol-4-amine]",> 10,> 10,> 10,2.7,–,–,–,–,–,–,–,–
"Nc1ncnc2[nH]c3cc([N+](=O)[O-])ccc3c12 [Compound 4a, 7-Nitro-9H-pyrimido[4,5-b]indol-4-amine]",7.6,> 10,> 10,3.5,–,–,–,–,–,–,–,–
"Cn1c2cc([N+](=O)[O-])ccc2c2c(N)ncnc21 [Compound 4b, 9-Methyl-7-nitro-9H-pyrimido[4,5-b]indol-4-amine]",> 10,> 10,> 10,2.8,–,–,–,–,–,–,–,–
"CCn1c2cc([N+](=O)[O-])ccc2c2c(N)ncnc21 [Compound 4c, 9-Ethyl-7-nitro-9H-pyrimido[4,5-b]indol-4-amine]",5.9,> 10,> 10,1.6,–,–,–,–,–,–,–,–
"Nc1ncnc2c1c1ccc([N+](=O)[O-])cc1n2Cc1ccccc1 [Compound 4d, 9-Benzyl-7-nitro-9H-pyrimido[4,5-b]indol-4-amine]",> 10,> 10,> 10,> 10,–,–,–,–,–,–,–,–
"COc1ccc2c(c1)[nH]c1c(C)nccc12 [Compound 11a, harmine, reference compound]",–,–,> 10,1.5,–,–,definitely inactive,definitely inactive,–,–,–,–
"COc1ccc2c3ccnc(C)c3n(C)c2c1 [Compound 11b, 7-Methoxy-1,9-dimethyl-β-carboline]",–,> 10,> 10,> 10,–,totally inactive,totally inactive,totally inactive,–,–,–,–
"CCn1c2cc(OC)ccc2c2ccnc(C)c21 [Compound 11c, 9-Ethyl-7-methoxy-1-methyl-β-carboline]",–,> 10,> 10,> 10,–,totally inactive,totally inactive,totally inactive,0.037,–,–,–
"COc1ccc2c3ccnc(C)c3n(Cc3ccccc3)c2c1 [Compound 11d, 9-Benzyl-7-methoxy-1-methyl-β-carboline]",0.059,> 10,> 10,> 10,–,totally inactive,totally inactive,totally inactive,–,–,–,–
Nc1ncnc2c1sc1ccccc12 [Compound 12],–,–,–,–,–,–,–,–,–,0.79,33,–
Nc1ncnc2c1sc1nccnc12 [Compound 13],–,–,–,–,–,–,–,–,–,2.4,> 10,micromolar and submicromolar activity
Nc1ncnc2c1sc1cccnc12 [Compound 14],–,–,–,–,–,–,–,–,–,1.8,6,micromolar and submicromolar activity
Nc1ncnc2c1sc1ncccc12 [Compound 15],–,–,–,–,–,–,–,–,–,0.031,> 10,micromolar and submicromolar activity
